Experimental data taken from US20230278266A1, “MICRONEEDLE ARRAYS FORMED FROM POLYMER FILMS” (TransDerm, Inc., priority 2007, published 2023).

Tested on: fresh human skin explant
Test: Gentian violet delivery into excised human skin explant by loaded microneedle array
Format: in vitro ADME
Conditions: human skin explant from abdominoplasty, red fluorescence filters
Text: FIGS. 3A and 3B show cross-sections of excised human skin showing penetration by needles loaded with gentian violet. […] The sample was sectioned at an angle nearly parallel to the needle array geometry, allowing observation of multiple needles. The delivery device backing material is visible as a layer between the OCT and the skin sample. The left needle is itself cross-sectioned, showing the gentian violet solution loaded into the needle shaft. The middle needle appears to penetrate both the stratum corneum and the epidermis, with the needle tip in full contact with the dermis. A third needle (on the right) is visible but is out of the focal plane. […] The Gentian violet was detected using a fluorescent microscope under red fluorescence filters (excitation 546 nm; emission 580 nm). The skin section was stained with DAPI to allow nuclei visualization.
A microneedle array in the transdermal delivery device loaded with gentian violet solution was applied to fresh human skin explant (resulting from abdominoplasty procedure) and immediately placed into tissue freezing medium (OCT) and frozen to -28° C. The sample was sectioned at an angle nearly parallel to the needle array geometry, and multiple needles were observed (FIG. 3). In FIG. 3, the microneedle array transdermal delivery device backing material is visible as a layer between the OCT and the skin sample. […]

SMILES: CN(C)c1ccc(C(=C2C=CC(=[N+](C)C)C=C2)c2ccc(N(C)C)cc2)cc1 [gentian violet]
- skin layer reached, fluorescence microscopy of skin section: delivered to human epidermis and dermis
